Assay results taken from publication PMC6189370, “Olmutinib (BI1482694/HM61713), a Novel Epidermal Growth Factor Receptor Tyrosine Kinase Inhibitor, Reverses ABCG2-Mediated Multidrug Resistance in Cancer Cells” (Frontiers in Pharmacology, 2018).

Target: T1, ABCG2 (Homo sapiens, UniProt Q9UNQ0)
T1 construct: membrane vesicles of High Five insect cells
T1 sequence (Q9UNQ0 1-655): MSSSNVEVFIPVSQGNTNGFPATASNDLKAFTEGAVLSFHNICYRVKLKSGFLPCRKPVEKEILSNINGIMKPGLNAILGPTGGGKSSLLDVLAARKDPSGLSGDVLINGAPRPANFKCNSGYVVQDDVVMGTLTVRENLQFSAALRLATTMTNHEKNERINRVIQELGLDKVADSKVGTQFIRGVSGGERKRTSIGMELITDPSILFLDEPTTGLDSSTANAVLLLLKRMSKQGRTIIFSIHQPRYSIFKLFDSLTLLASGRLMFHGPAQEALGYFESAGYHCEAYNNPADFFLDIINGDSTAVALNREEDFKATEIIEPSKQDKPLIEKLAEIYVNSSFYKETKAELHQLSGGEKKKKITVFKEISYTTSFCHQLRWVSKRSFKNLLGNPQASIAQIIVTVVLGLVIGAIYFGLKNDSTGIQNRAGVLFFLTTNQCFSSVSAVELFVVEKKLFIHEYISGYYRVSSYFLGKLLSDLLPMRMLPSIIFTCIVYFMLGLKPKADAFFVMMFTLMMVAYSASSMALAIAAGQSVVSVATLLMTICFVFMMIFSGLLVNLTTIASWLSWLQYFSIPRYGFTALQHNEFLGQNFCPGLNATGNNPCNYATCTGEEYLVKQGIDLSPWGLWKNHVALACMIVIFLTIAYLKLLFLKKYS
Experiment: biochemical

EC50: 2200 nM
Compound: C=CC(=O)Nc1cccc(Oc2nc(Nc3ccc(N4CCN(C)CC4)cc3)nc3ccsc23)c1 [olmutinib]
